Measured values as given in US11926612B2, “Heterocyclic apelin receptor (APJ) agonists and uses thereof” (Research Triangle Institute, priority 2016, dated 2024).

Experiments:
[1] = biological target: T1, apelin receptor (APJ) (Homo sapiens, UniProt P35414); experiment: in vitro activity as apelin agonists (methods of Giddings et al.; Apelin-13 positive control); type: cell-based; settings: apelin agonist activity, average; read-out: EC50 (nM) Ave
T1 sequence (P35414 1-380): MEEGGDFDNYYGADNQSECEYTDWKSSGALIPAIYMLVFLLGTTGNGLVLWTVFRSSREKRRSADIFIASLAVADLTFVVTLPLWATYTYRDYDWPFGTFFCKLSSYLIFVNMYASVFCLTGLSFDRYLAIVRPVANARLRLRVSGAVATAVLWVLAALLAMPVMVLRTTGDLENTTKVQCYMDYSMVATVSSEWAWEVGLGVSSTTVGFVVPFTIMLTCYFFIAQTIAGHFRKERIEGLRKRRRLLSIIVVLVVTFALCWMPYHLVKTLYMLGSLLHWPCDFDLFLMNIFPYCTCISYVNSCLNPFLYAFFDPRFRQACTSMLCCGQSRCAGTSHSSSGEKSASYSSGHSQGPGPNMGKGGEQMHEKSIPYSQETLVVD
Excerpt: The compounds above were studied for their in vitro activity as apelin agonists using the methods described by Giddings et al. Giddings et al., 2010 Int J High Thro Screen. 1:39-47, the contents of which are hereby incorporated by reference in its entirety. The methods described in Giddings et al. were used as described and Apelin-13 was a positive control.

[2] = Cellular uptake assay: Caco-2 monolayer permeability (A-to-B / B-to-A); type: in vitro ADME; settings: human, Papp (B-to-A)/Papp (A-to-B), Caco-2, 5 μM, pH 7.4
Experimental: Caco-2 cells (clone C2BBe1) were obtained from American Type Culture Collection (Manassas, VA). Cell monolayers were grown to confluence on collagen-coated, microporous, polycarbonate membranes in 12-well Costar Transwell plates. Details of the plates and their certification are shown below. The permeability assay buffer was Hanks' balanced salt solution (HBSS) containing 10 mM HEPES and 15 mM glucose at a pH of 7.4. The buffer in the receiver chamber also contained 1% bovine serum albumin. The dosing solution concentration was 5 μM for each test article in the assay buffer. Cell monolayers were dosed on the apical side (A-to-B) or basolateral side (B-to-A) and incubated at 37° C. with 5% CO2 in a humidified incubator. Samples were taken from the donor and receiver chambers at 120 minutes. Each determination was performed in duplicate. After the experiment, all assay buffers were removed from the inserts. Cell monolayers were dosed with blank 500 μM lucifer yellow on the A-to-B side and blank HBSS on the B-to-A side and incubated at 37° C. Samples were taken from the B-to-A side at 60 minutes. The flux of lucifer yellow was measured for each monolayer to ensure no damage was inflicted to the cell monolayers during the flux period. All samples were analyzed by LC-MS/MS using electrospray ionization. The apparent permeability (Papp) and percent recovery were calculated as follows: Papp=(dCr/dt)×Vr/(A×CA) (1) Percent Recovery=100×((Vr×Cr^final)+(Vd×Cd^final))/(Vd×CN) (2)
Where, dCr/dt is the slope of the cumulative concentration in the receiver compartment versus time in M s^−1;
Vr is the volume of the receiver compartment in cm^3;
Vd is the volume of the donor compartment in cm^3;
A is the area of the insert (1.13 cm^2 for 12-well Transwell);
CA is the average of the nominal dosing concentration and the measured 120-minute donor concentration in μM;
CN is the nominal concentration of the dosing solution in M;
Cr^final is the cumulative receiver concentration in M at the end of the incubation period;
Cd^final is the concentration of the donor in μM at the end of the incubation period.
Efflux ratio (ER) is defined as Papp (B-to-A)/Papp (A-to-B).
Absorption Potential Classification:
Papp (A-to-B)<1.0×10^−6 cm/s: Low
Papp (A-to-B) ≥1.0×10^−6 cm/s: High
Significant Efflux is defined as: ER≥2.0 and Papp (B-to-A)≥1.0×10^−6 cm/

Structure (SMILES) | EC50 [1] [nM] | efflux ratio at 120 min, 5 μM [2]
O=C(O)C[C@H](CCN1CCCC(F)(F)C1)NC(=O)c1nc(C2CCCC2)n(-c2ccccc2C(F)(F)F)n1 [compound 461, (3S)-3-({5-cyclopentyl-1-[2-(trifluoromethyl)phenyl]-1H-1,2,4-triazol-3-yl}formamido)-5-(3,3-difluoropiperidin-1-yl)pentanoic acid] | 46 | 7
O=C(C[C@H](CCN1CCCC(F)(F)C1)NC(=O)c1cn(-c2ccccc2C(F)(F)F)c(C2CCCC2)n1)NC1CCC1 [compound 472, (3S)-N-cyclobutyl-3-({2-cyclopentyl-1-[2-(trifluoromethyl)phenyl]-1H-imidazol-4-yl}formamido)-5-(3,3-difluoropiperidin-1-yl)pentanamide] | 15 | 4
CC(C)Cc1c(-c2ccccc2Cl)nc(C(=O)N[C@@H](CCN2CCCC(F)(F)C2)CC(=O)N(C)c2nccs2)n1C [compound 477, (3S)-3-{[4-(2-chlorophenyl)-1-methyl-5-(2-methylpropyl)-1H-imidazol-2-yl]formamido}-5-(3,3-difluoropiperidin-1-yl)-N-methyl-N-(1,3-thiazol-2-yl)pentanamide] | > 10000 | –
CC(C)Cc1c(-c2ccccc2Cl)nc(C(=O)N[C@@H](CCN2CCCC(F)(F)C2)CC(=O)NC2CCC2)n1C [compound 478, (3S)-3-{[4-(2-chlorophenyl)-1-methyl-5-(2-methylpropyl)-1H-imidazol-2-yl]formamido}-N-cyclobutyl-5-(3,3-difluoropiperidin-1-yl)pentanamide] | > 10000 | –
O=C(O)C[C@H](CCN1CCCC(F)(F)C1)NC(=O)c1nc(-c2ncccc2C(F)(F)F)n(C2CCCC2)n1 [compound 512, (3S)-3-({1-cyclopentyl-5-[3-(trifluoromethyl)pyridin-2-yl]-1H-1,2,4-triazol-3-yl}formamido)-5-(3,3-difluoropiperidin-1-yl)pentanoic acid] | 152 | –
O=C(O)C[C@H](CCN1CCCC(F)(F)C1)NC(=O)c1nc(C2CCCC2)n(-c2cccnc2C(F)(F)F)n1 [compound 513, (3S)-3-({5-cyclopentyl-1-[2-(trifluoromethyl)pyridin-3-yl]-1H-1,2,4-triazol-3-yl}formamido)-5-(3,3-difluoropiperidin-1-yl)pentanoic acid] | > 10000 | –
O=C(C[C@H](CCN1CCCC(F)(F)C1)NC(=O)c1nc(-c2ncccc2C(F)(F)F)n(C2CCCC2)n1)NC1CCC1 [compound 530, (3S)-N-cyclobutyl-3-({1-cyclopentyl-5-[3-(trifluoromethyl)pyridin-2-yl]-1H-1,2,4-triazol-3-yl}formamido)-5-(3,3-difluoropiperidin-1-yl)pentanamide] | 7.5 | 46
O=C(C[C@H](CCN1CCCC(F)(F)C1)NC(=O)c1nc(C2CCCC2)n(-c2cccnc2C(F)(F)F)n1)NC1CCC1 [compound 531, (3S)-N-cyclobutyl-3-({5-cyclopentyl-1-[2-(trifluoromethyl)pyridin-3-yl]-1H-1,2,4-triazol-3-yl}formamido)-5-(3,3-difluoropiperidin-1-yl)pentanamide] | 323 | –
O=C(C[C@H](CCN1CCCC(F)(F)C1)NC(=O)c1nc(-c2cccnc2C(F)(F)F)n(C2CCCC2)n1)NC1CCC1 [compound 532, (3S)-N-cyclobutyl-3-({1-cyclopentyl-5-[2-(trifluoromethyl)pyridin-3-yl]-1H-1,2,4-triazol-3-yl}formamido)-5-(3,3-difluoropiperidin-1-yl)pentanamide] | 2540 | –
COCCN(C)C(=O)[C@H](CCc1ccccc1)NC(=O)c1nc(C2CCCC2)n(-c2ccccc2C(F)(F)F)n1 [compound 543, (2S)-2-({5-cyclopentyl-1-[2-(trifluoromethyl)phenyl]-1H-1,2,4-triazol-3-yl}formamido)-N-(2-methoxyethyl)-N-methyl-4-phenylbutanamide] | 754 | –
COCCN(C)C(=O)[C@H](CCc1ccccc1)NC(=O)c1nc(-c2ccccc2C(F)(F)F)n(C2CCCC2)n1 [compound 569, (2S)-2-({1-cyclopentyl-5-[2-(trifluoromethyl)phenyl]-1H-1,2,4-triazol-3-yl}formamido)-N-(2-methoxyethyl)-N-methyl-4-phenylbutanamide] | > 10000 | –
O=C(O)C[C@H](CCN1CCC(F)(F)C1)NC(=O)c1nc(C2CCCC2)n(-c2ccccc2C(F)(F)F)n1 [compound 586, (3S)-3-({5-cyclopentyl-1-[2-(trifluoromethyl)phenyl]-1H-1,2,4-triazol-3-yl}formamido)-5-(3,3-difluoropyrrolidin-1-yl)pentanoic acid] | 74 | –
O=C(N[C@@H](CCN1CCCC(F)(F)C1)Cc1nnn[nH]1)c1nc(C2CCCC2)n(-c2ccccc2C(F)(F)F)n1 [compound 616, 5-cyclopentyl-N-[(2S)-4-(3,3-difluoropiperidin-1-yl)-1-(1H-1,2,3,4-tetrazol-5-yl)butan-2-yl]-1-[2-(trifluoromethyl)phenyl]-1H-1,2,4-triazole-3-carboxamide] | 9 | 17
O=C(O)C[C@H](CCN1CCCC(F)(F)C1)NC(=O)c1cn(-c2ccccc2C(F)(F)F)c(C2CCCC2)n1 [compound 617, (3S)-3-({2-cyclopentyl-1-[2-(trifluoromethyl)phenyl]-1H-imidazol-4-yl}formamido)-5-(3,3-difluoropiperidin-1-yl)pentanoic acid] | 13 | –
O=C(N[C@@H](CCN1CCCC(F)(F)C1)Cc1nnn[nH]1)c1cn(-c2ccccc2C(F)(F)F)c(C2CCCC2)n1 [compound 620] | 8 | –
